The results in this text go back to patent US12428406B2 (PMV Pharmaceuticals, Inc., priority 2019, dated 2025).

The structures appear in SMILES notation.

The target in this assay is T1, p53 Y220C (Homo sapiens, UniProt P04637, Y220C).
T1 construct: The recombinant protein was a truncation mutant containing only amino acids 94-312 of p53; made in house; host or cells: E. coli
T1 sequence (P04637 94-312, change not shown): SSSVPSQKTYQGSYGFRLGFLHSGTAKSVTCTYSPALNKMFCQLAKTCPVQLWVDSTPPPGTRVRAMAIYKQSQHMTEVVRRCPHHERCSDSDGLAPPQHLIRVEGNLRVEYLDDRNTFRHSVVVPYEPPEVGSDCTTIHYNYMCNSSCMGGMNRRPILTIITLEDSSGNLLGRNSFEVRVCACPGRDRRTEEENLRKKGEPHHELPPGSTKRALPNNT
The assay is described as follows: In vitro DNA binding activity assay (HTRF / TR-FRET): stabilization of p53 Y220C and increase of its DNA binding activity. The note with it: recombinant His-tagged p53 Y220C DNA binding domain (aa 94-312), biotin-labeled consensus DNA, incubated at 27° C. or 29° C. for 60 min. It is filed as biochemical. A digest of the protocol: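 His-tagged p53 Y220C, E. coli-expressed, binding biotin-labeled consensus DNA measured by HTRF (anti-His-APC, streptavidin-europium). Compounds from 4.5 mM DMSO stocks, 3-fold serial dilutions; incubations at room temperature 15 min, then 20 min. SC150 = concentration raising DNA binding by 50%.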
As for `CNC(=O)c1ccc(NCC#Cc2cc3c(N[C@H]4CC[C@H](N5CC[S+]([O-])CC5)CC4)cccc3n2CC(F)(F)F)c(OC)c1` [Compound 369A, 3-methoxy-N-methyl-4-{[3-(4-{[(1R,4R)-4-(1-oxo-1λ^4-thiomorpholin-4-yl)cyclohexyl]amino}-1-(2,2,2-trifluoroethyl)-1H-indol-2-yl)prop-2-yn-1-yl]amino}benzamide], the “SC150 (concentration of the compound required to increase the DNA binding activity by 50%)” value is reported as “+ (+ = 0 μM ≤ SC150 < 0.05 μM)”.

As to `COc1cc(C(=O)O)ccc1NCC#Cc1cc2c(N[C@@H]3CCN(CC(=O)O)C[C@@H]3F)cccc2n1CC(F)(F)F` [Compound 934A, 4-{[3-(4-{[(3S,4R)-1-(carboxymethyl)-3-fluoropiperidin-4-yl]amino}-1-(2,2,2-trifluoroethyl)-1H-indol-2-yl)prop-2-yn-1-yl]amino}-3-methoxybenzoic acid], the “SC150 (concentration of the compound required to increase the DNA binding activity by 50%)” value is listed as “+ (+ = 0 μM ≤ SC150 < 0.05 μM)”.

For `COc1cc(S(C)(=O)=O)ccc1NCC#Cc1c(C)c2c(NC3CCN(C)CC3)cccc2n1CC(F)(F)F` [Compound 520A, 2-{3-[(4-methanesulfonyl-2-methoxyphenyl)amino]prop-1-yn-1-yl}-3-methyl-N-(1-methylpiperidin-4-yl)-1-(2,2,2-trifluoroethyl)-1H-indol-4-amine], the “SC150 (concentration of the compound required to increase the DNA binding activity by 50%)” value was “+++ (+++ = 0.1 μM ≤ SC150 < 0.2 μM)”.

In the case of `COc1cc(S(N)(=O)=O)ccc1NCC#Cc1cc2c(N[C@H]3CC[C@H](N4CCC(C(F)(F)F)CC4)CC3)cccc2n1CC(F)(F)F` [Compound 440A, 3-methoxy-4-{[3-(4-{[(1R,4R)-4-[4-(trifluoromethyl)piperidin-1-yl]cyclohexyl]amino}-1-(2,2,2-trifluoroethyl)-1H-indol-2-yl)prop-2-yn-1-yl]amino}benzene-1-sulfonamide], the “SC150 (concentration of the compound required to increase the DNA binding activity by 50%)” value is listed as “+ (+ = 0 μM ≤ SC150 < 0.05 μM)”.

Regarding `COC[C@H](O)CN1CC[C@@H](Nc2cccc3c2cc(C#CCNc2ccc(C(=O)OC)cc2OC)n3CC(F)(F)F)[C@@H](F)C1` [Compound 878A], the “SC150 (concentration of the compound required to increase the DNA binding activity by 50%)” value is “+ (+ = 0 μM ≤ SC150 < 0.05 μM)”.

With `CCCn1c(C#CCNc2c(F)cc(S(C)(=O)=O)cc2OC)cc2c(N[C@H]3CCN(C[C@@H](O)COC)C[C@H]3F)cccc21` [Compound 880A], the “SC150 (concentration of the compound required to increase the DNA binding activity by 50%)” value is reported as “++++ (++++ = 0.2 μM ≤ SC150 < 1 μM)”.

Take `COc1cc(S(N)(=O)=O)ccc1NCC#Cc1cc2c(N[C@H]3CC[C@H](N4CCC5(CC4)COC5)CC3)cccc2n1CC(F)(F)F` [Compound 377A, 3-methoxy-4-{[3-(4-{[(1R,4R)-4-{2-oxa-7-azaspiro[3.5]nonan-7-yl}cyclohexyl]amino}-1-(2,2,2-trifluoroethyl)-1H-indol-2-yl)prop-2-yn-1-yl]amino}benzene-1-sulfonamide]: the “SC150 (concentration of the compound required to increase the DNA binding activity by 50%)” value is “+ (+ = 0 μM ≤ SC150 < 0.05 μM)”.

On to `COc1cc(S(C)(=O)=O)ccc1NCC#Cc1cc2c(NC(=O)N3CCN(C)CC3)cccc2n1CC(F)(F)F` [Compound 8A, N-(2-{3-[(4-methanesulfonyl-2-methoxyphenyl)amino]prop-1-yn-1-yl}-1-(2,2,2-trifluoroethyl)-1H-indol-4-yl)-4-methylpiperazine-1-carboxamide], for which the “SC150 (concentration of the compound required to increase the DNA binding activity by 50%)” value was “++++ (++++ = 0.2 μM ≤ SC150 < 1 μM)”.

`CN1CCC(Nc2cccc3c2cc(C#CCNc2cccc(S(C)(=O)=O)c2)n3CC(F)(F)F)CC1` [Compound 507A, 2-{3-[(3-methanesulfonylphenyl)amino]prop-1-yn-1-yl}-N-(1-methylpiperidin-4-yl)-1-(2,2,2-trifluoroethyl)-1H-indol-4-amine]: the “SC150 (concentration of the compound required to increase the DNA binding activity by 50%)” value was “++ (++ = 0.05 μM ≤ SC150 < 0.1 μM)”.

Take `COCCN(C)S(=O)(=O)c1ccc(NCC#Cc2cc3c(NC4CCN(CC(O)CO)CC4)cccc3n2CC(F)(F)F)c(OC)c1` (stereo not shown) [Compound 572A, 4-{[3-(4-{[1-(2,3-dihydroxypropyl)piperidin-4-yl]amino}-1-(2,2,2-trifluoroethyl)-1H-indol-2-yl)prop-2-yn-1-yl]amino}-3-methoxy-N-(2-methoxyethyl)-N-methylbenzene-1-sulfonamide]: the “SC150 (concentration of the compound required to increase the DNA binding activity by 50%)” value was “+ (+ = 0 μM ≤ SC150 < 0.05 μM)”.

Turning to `COc1cc(C(N)=O)c(F)cc1NCC#Cc1cc2c(NC3CCN(C)CC3)cccc2n1CC(F)(F)F` [Compound 514A, 2-fluoro-5-methoxy-4-[(3-{4-[(1-methylpiperidin-4-yl)amino]-1-(2,2,2-trifluoroethyl)-1H-indol-2-yl}prop-2-yn-1-yl)amino]benzamide], the “SC150 (concentration of the compound required to increase the DNA binding activity by 50%)” value is on record as “+ (+ = 0 μM ≤ SC150 < 0.05 μM)”.

For `CN1CC[C@@H](Nc2cccc3c2cc(C#CCNc2ccc(S(C)(=O)=O)cc2O)n3CC(F)(F)F)[C@@H](F)C1` [Compound 834A, 2-{[3-(4-{[(3S,4R)-3-fluoro-1-methylpiperidin-4-yl]amino}-1-(2,2,2-trifluoroethyl)-1H-indol-2-yl)prop-2-yn-1-yl]amino}-5-methanesulfonylphenol], the “SC150 (concentration of the compound required to increase the DNA binding activity by 50%)” value is “+ (+ = 0 μM ≤ SC150 < 0.05 μM)”.

For the molecule `COc1cc(C(N)=O)ccc1NCC#Cc1cc2c(N[C@H]3CC[C@@H](N(C)C)CC3)cccc2n1CC(F)(F)F` [Compound 613A, 3-methoxy-4-{[3-(4-{[(1S,4S)-4-(dimethylamino)cyclohexyl]amino}-1-(2,2,2-trifluoroethyl)-1H-indol-2-yl)prop-2-yn-1-yl]amino}benzamide], the “SC150 (concentration of the compound required to increase the DNA binding activity by 50%)” value is recorded as “+ (+ = 0 μM ≤ SC150 < 0.05 μM)”.

For the molecule `CS(=O)(=O)c1ccc(NCC#Cc2cc3c(N[C@H]4CC[C@@H](N5CC6(CCOCC6)C5)CC4)cccc3n2CC(F)(F)F)c(OCC#N)c1` [Compound 304A, 2-(5-methanesulfonyl-2-{[3-(4-{[(1S,4S)-4-{7-oxa-2-azaspiro[3.5]nonan-2-yl}cyclohexyl]amino}-1-(2,2,2-trifluoroethyl)-1H-indol-2-yl)prop-2-yn-1-yl]amino}phenoxy)acetonitrile], the “SC150 (concentration of the compound required to increase the DNA binding activity by 50%)” value was “+ (+ = 0 μM ≤ SC150 < 0.05 μM)”.

Take `COc1cc(S(=O)(=O)N2CCN(C)CC2)ccc1NCC#Cc1cc2c(NC3CCN(C)CC3)cccc2n1CC(F)(F)F` [Compound 485A, 2-[3-({2-methoxy-4-[(4-methylpiperazin-1-yl)sulfonyl]phenyl}amino)prop-1-yn-1-yl]-N-(1-methylpiperidin-4-yl)-1-(2,2,2-trifluoroethyl)-1H-indol-4-amine]: the “SC150 (concentration of the compound required to increase the DNA binding activity by 50%)” value is given as “+ (+ = 0 μM ≤ SC150 < 0.05 μM)”.

For the molecule `CNc1cc(S(C)(=O)=O)ccc1OCC#Cc1cc2c(NC3CCC(N4CC5(COC5)C4)CC3)cccc2n1CC(F)(F)F` [Compound 245A, 2-{3-[4-methanesulfonyl-2-(methylamino)phenoxy]prop-1-yn-1-yl}-N-[(1R,4R)-4-{2-oxa-6-azaspiro[3.3]heptan-6-yl}cyclohexyl]-1-(2,2,2-trifluoroethyl)-1H-indol-4-amine], the “SC150 (concentration of the compound required to increase the DNA binding activity by 50%)” value is recorded as “+ (+ = 0 μM ≤ SC150 < 0.05 μM)”.
